Converted amounts (≈) assume the structure as drawn.
Assays:
[1] = system: Poliovirus type 1 (Polio 1, Sabin); assay: microbe, parasite or virus in culture; type: cell-based; details: for IC50: Enterovirus C, HeLa S3, read-out: IC50 Polio 1
[2] = system: echovirus type 11 (Echo 11, Gregory); assay: In vitro anti-picornavirus activity (MTT), Echo 11; type: cell-based; details: HeLa-S3 cells, MTT method, 37° C.; for IC50: Enterovirus B
[3] = system: coxsackievirus type A7 (CA7); assay: In vitro anti-picornavirus activity (MTT), CA7; type: cell-based; details: HeLa-S3 cells, MTT method, 37° C.; for IC50: Coxsackievirus
[4] = system: coxsackievirus type B4 (CB4,JVB); assay: In vitro anti-picornavirus activity (MTT), CB4; type: cell-based; details: HeLa cells, MTT method, 37° C.; for IC50: Coxsackievirus
[5] = system: HRV1A (E28); assay: Anti-rhinovirus activity (MTT), HRV1A; type: cell-based, human rhinovirus; details: for IC50 HRV 1A: HeLa (Ohio strain) cells, MTT method, 33° C.; for IC50: Human rhinovirus sp., HRV1A, HeLa, read-out: IC50 HRV 1A
[6] = system: human rhinovirus type 1B (HRV 1B, B632); assay: Anti-rhinovirus activity (MTT), HRV1B; type: cell-based; details: HeLa (Ohio strain) cells, MTT method, 33° C.; for IC50: Human rhinovirus sp., HRV1B, read-out: IC50 HRV1B
[7] = system: HRV 2 (HGP); assay: Anti-rhinovirus activity (MTT), HRV2; type: cell-based, human rhinovirus; details: HeLa (Ohio strain) cells, MTT method, 33° C.; for IC50: Human rhinovirus sp., HRV2, read-out: IC50 HRV2
[8] = system: HRV14 (1059); assay: Anti-rhinovirus activity (MTT), HRV14; type: cell-based, human rhinovirus; details: HeLa (Ohio strain) cells, MTT method, 33° C.; for IC50: Human rhinovirus sp., HRV14, read-out: IC50 HRV 14
[9] = system: HRV 89 (41617-Gallo); assay: Anti-rhinovirus activity (MTT), HRV89; type: cell-based, human rhinovirus; details: HeLa (Ohio strain) cells, MTT method, 33° C.; for IC50: Human rhinovirus sp., HRV89, read-out: IC50 HRV89
[10] = system: HeLa cells; assay: Cytotoxicity (MTT, without virus), HeLa; details: HeLa, no virus, incubated for 4 days
[11] = system: HeLa-S3 cells; assay: Cytotoxicity (MTT, without virus), HeLa-S3; details: HeLa-S3, no virus, incubated for 4 days
[12] = system: HeLa (Ohio strain)cells; assay: Cytotoxicity (MTT, without virus), HeLa(Ohio); details: HeLa(Ohio), no virus, incubated for 4 days

Compound	IC50 Polio 1 [1]	IC50 Echo 11 [2]	IC50 CA7 [3]	IC50 CB4 [4]	IC50 HRV1B [6]	IC50 HRV2 [7]	IC50 HRV89 [9]	Cytotoxicity CC50 HeLa [10]	Cytotoxicity CC50 HeLa-S3 [11]	Cytotoxicity CC50 HeLa(Ohio) [12]	other results
CCc1ccc2c(c1)Cc1c-2n(C)c2ccc(C(C)C)cc2c1=O [Compound B8]	0.19 µg/mL (≈ 0.599 µM)	0.17 µg/mL (≈ 0.536 µM)	0.70 µg/mL (≈ 2.21 µM)	0.60 µg/mL (≈ 1.89 µM)	0.24 µg/mL (≈ 0.756 µM)	0.22 µg/mL (≈ 0.693 µM)	0.12 µg/mL (≈ 0.378 µM)	>1 µg/mL	>1 µg/mL	>1 µg/mL	IC50 HRV 1A [5]: >1 µg/mL; IC50 HRV 14 [8]: 0.40 µg/mL (≈ 1.26 µM)
CCOC(=O)c1c(-c2ccccc2)n(C)c2ccc(C(C)C)cc2c1=O	–	–	–	–	–	–	–	–	–	–	melting point: 164 to 165 °C
CCn1c2c(c(=O)c3cc(C(C)C)ccc31)C(OC)(c1ccccc1)c1ccccc1-2 (centres unmarked)	–	–	–	–	–	–	–	–	–	–	melting point: 237 to 239 °C
CCn1c2c(c(=O)c3cc(C(C)C)ccc31)C(=NOC)c1ccccc1-2 [Compound C49, 5-Ethyl-8-isoproypl-11-methoxyimino-5,10-dihydro-11H-indeno[1,2-b]quinolin-10-one]	0.52 µg/mL (≈ 1.5 µM)	0.26 µg/mL (≈ 0.751 µM)	9.2 µg/mL (≈ 26.6 µM)	2.3 µg/mL (≈ 6.64 µM)	1.9 µg/mL (≈ 5.48 µM)	1.7 µg/mL (≈ 4.91 µM)	2.1 µg/mL (≈ 6.06 µM)	–	–	–	IC50 HRV 1A [5]: >10 µg/mL; IC50 HRV 14 [8]: 5.5 µg/mL (≈ 15.9 µM)
CCn1c2c(c(=O)c3cc(C(C)C)ccc31)C(N)c1ccccc1-2.Cl.Cl (centres unmarked)	–	–	–	–	–	–	–	–	–	–	melting point: 200 °C (dec.)
CCn1c2c(c(=O)c3cc(C(C)C)ccc31)C(C)c1ccccc1-2 (centres unmarked) [Compound C40, 5-Ethyl-8-isopropyl-11-methyl-5,10-dihydro-11H-indeno[1,2-b]quinolin-10-one]	–	–	–	–	–	–	–	–	–	–	IC50 [1]: 0.54 µg/mL (≈ 1.7 µM); IC50 [2]: 0.24 µg/mL (≈ 0.756 µM); IC50 [3]: > 3.3 µg/mL; IC50 [4]: 1.7 µg/mL (≈ 5.36 µM); IC50 [5]: > 3.3 µg/mL; IC50 [6]: 0.51 µg/mL (≈ 1.61 µM); IC50 [7]: 0.54 µg/mL (≈ 1.7 µM); IC50 [8]: 1.1 µg/mL (≈ 3.47 µM); IC50 [9]: 0.56 µg/mL (≈ 1.76 µM); melting point: 152 to 154 °C
COc1ccc2c(c1)Cc1c-2n(C)c2ccc(CC(C)C)cc2c1=O [Compound B11]	0.45 µg/mL (≈ 1.35 µM)	0.28 µg/mL (≈ 0.84 µM)	>2 µg/mL	1.6 µg/mL (≈ 4.8 µM)	0.36 µg/mL (≈ 1.08 µM)	0.34 µg/mL (≈ 1.02 µM)	0.31 µg/mL (≈ 0.93 µM)	>2 µg/mL	>2 µg/mL	>2 µg/mL	IC50 HRV 1A [5]: 1.7 µg/mL (≈ 5.1 µM); IC50 HRV 14 [8]: 0.78 µg/mL (≈ 2.34 µM)
CCn1c2c(c(=O)c3cc(C(C)C)ccc31)C(O)c1ccccc1-2 (centres unmarked) [Compound C43, 5-Ethyl-8-isopropyl-11-hydroxy-5,10-dihydro-11H-indeno[1,2-b]quinolin-10-one]	–	–	–	–	–	–	–	–	–	–	IC50 [1]: 1.5 µg/mL (≈ 4.7 µM); IC50 [2]: 0.54 µg/mL (≈ 1.69 µM); IC50 [3]: > 5 µg/mL; IC50 [4]: 2.9 µg/mL (≈ 9.08 µM); IC50 [5]: > 5 µg/mL; IC50 [6]: 1.5 µg/mL (≈ 4.7 µM); IC50 [7]: 0.67 µg/mL (≈ 2.1 µM); IC50 [8]: 2.5 µg/mL (≈ 7.83 µM); IC50 [9]: 0.86 µg/mL (≈ 2.69 µM)
CCn1c2c(c(=O)c3cc(C(C)C)ccc31)C(NC(C)=O)c1ccccc1-2 (centres unmarked)	–	–	–	–	–	–	–	–	–	–	melting point: 215 °C (dec.)
CCn1c(-c2ccc(OC)c(C)c2)cc(=O)c2cc(C(C)C)ccc21 [Compound A98]	0.66 µg/mL (≈ 1.97 µM)	0.26 µg/mL (≈ 0.775 µM)	2.9 µg/mL (≈ 8.65 µM)	1.2 µg/mL (≈ 3.58 µM)	0.78 µg/mL (≈ 2.33 µM)	0.42 µg/mL (≈ 1.25 µM)	0.36 µg/mL (≈ 1.07 µM)	>4 µg/mL	>4 µg/mL	>4 µg/mL	–
CCn1c(-c2ccccc2)c(C)c(=O)c2c(C)c(OCC(C)C)ccc21 [Compound A188]	0.31 µg/mL (≈ 0.887 µM)	0.27 µg/mL (≈ 0.773 µM)	1.2 µg/mL (≈ 3.43 µM)	1.1 µg/mL (≈ 3.15 µM)	0.81 µg/mL (≈ 2.32 µM)	0.33 µg/mL (≈ 0.944 µM)	0.25 µg/mL (≈ 0.715 µM)	>5 µg/mL	>5 µg/mL	>5 µg/mL	–
COc1ccc(-c2cc(=O)c3cc(C(C)C)ccc3n2C)cc1C [Compound A97]	0.54 µg/mL (≈ 1.68 µM)	0.3 µg/mL (≈ 0.933 µM)	2.1 µg/mL (≈ 6.53 µM)	1.4 µg/mL (≈ 4.36 µM)	0.58 µg/mL (≈ 1.8 µM)	0.61 µg/mL (≈ 1.9 µM)	0.14 µg/mL (≈ 0.436 µM)	5.1 µg/mL	>10 µg/mL	4.5 µg/mL	–
Cc1c(-c2ccccc2)n(C)c2cc(C(C)C)c(OC(C)C)cc2c1=O [Compound A258]	0.62 µg/mL (≈ 1.77 µM)	0.23 µg/mL (≈ 0.658 µM)	4.9 µg/mL (≈ 14 µM)	>1.6 µg/mL	0.62 µg/mL (≈ 1.77 µM)	0.45 µg/mL (≈ 1.29 µM)	0.66 µg/mL (≈ 1.89 µM)	4.5 µg/mL	>5 µg/mL	4.9 µg/mL	–
Cc1cc2c(cc1OCC(C)C)c(=O)c(C)c(-c1ccccc1)n2C [Compound A234]	0.89 µg/mL (≈ 2.65 µM)	0.25 µg/mL (≈ 0.745 µM)	3.8 µg/mL (≈ 11.3 µM)	2.5 µg/mL (≈ 7.45 µM)	1.0 µg/mL (≈ 2.98 µM)	0.26 µg/mL (≈ 0.775 µM)	0.32 µg/mL (≈ 0.954 µM)	>5 µg/mL	>5 µg/mL	>5 µg/mL	–
Cc1cc2c(c(C)c1OCC(C)C)c(=O)c(C)c(-c1ccccc1)n2C [Compound A286]	1.3 µg/mL (≈ 3.72 µM)	0.57 µg/mL (≈ 1.63 µM)	>5 µg/mL	1.4 µg/mL (≈ 4.01 µM)	0.87 µg/mL (≈ 2.49 µM)	0.23 µg/mL (≈ 0.658 µM)	0.61 µg/mL (≈ 1.75 µM)	>5 µg/mL	>5 µg/mL	>5 µg/mL	–
COc1ccc(-c2c(C)c(=O)c3cc(C(C)C)ccc3n2C)cc1 [Compound A81]	0.78 µg/mL (≈ 2.43 µM)	0.52 µg/mL (≈ 1.62 µM)	0.78 µg/mL (≈ 2.43 µM)	2.2 µg/mL (≈ 6.84 µM)	1.7 µg/mL (≈ 5.29 µM)	0.86 µg/mL (≈ 2.68 µM)	0.55 µg/mL (≈ 1.71 µM)	6.5 µg/mL	7.6 µg/mL	5.8 µg/mL	–
CCn1c(-c2ccccc2)c(C)c(=O)c2c(Cl)c(OCC(C)C)ccc21 [Compound A179]	0.29 µg/mL (≈ 0.784 µM)	0.20 µg/mL (≈ 0.541 µM)	2.4 µg/mL (≈ 6.49 µM)	1.2 µg/mL (≈ 3.24 µM)	0.86 µg/mL (≈ 2.33 µM)	0.87 µg/mL (≈ 2.35 µM)	0.37 µg/mL (≈ 1 µM)	>4 µg/mL	>4 µg/mL	>4 µg/mL	–
Cc1c(-c2ccccc2)n(C)c2ccc(OCC(C)C)c(N)c2c1=O.Cl [Compound A194]	0.58 µg/mL	0.45 µg/mL	1.7 µg/mL	1.3 µg/mL	0.05 µg/mL	0.49 µg/mL	0.18 µg/mL	>2.5 µg/mL	>2.5 µg/mL	>2.5 µg/mL	–

Source: patent publication US7109338B2, “1,2-disubstituted 1,4-dihydro-4-oxoquinoline compounds” (priority 1999, dated 2006)
